Results: patent US20250059187A1, “COVALENTLY BINDING INHIBITORS OF G12S, G12D AND/OR G12E MUTANTS OF K-RAS GTPASE” (The Regents of the University of California, priority 2021, published 2025)

How the values were obtained:
[1] = tested on: Ba/F3 KRAS G12D cells + interleukin-3; assay: Growth inhibition of Ba/F3 KRAS G12D cells co-treated with IL-3; format: cell-based, murine; settings: IL-3, 10 ng/mL
Procedure: (§1) Cells were seeded into 96-well white flat bottom plates (1,000 cells/well) (Corning) and incubated overnight. Cells were treated with the indicated compounds in a nine-point threefold dilution series (100 μL final volume) and incubated for 72 h. Cell viability was assessed using a commercial CellTiter-Glo (CTG) luminescence-based assay (Promega). Briefly, the 96-well plates were equilibrated to room temperature before the addition of diluted CTG reagent […] (1:4 CTG reagent:PBS). Plates were placed on an orbital shaker for 30 min before recording luminescence using a Spark 20M (Tecan) plate reader.

wild type K-Ras = molecular target: T1, wild type K-Ras (Homo sapiens, UniProt P01116); assay: Covalent modification of test protein after incubation with compound; format: binding; settings: 24-h incubation with 100 μM compound at 23° C. at pH 7.5
T1 construct: human K-Ras (wildtype, aa 1-169); 6xHis tag + TEV cleavage site (N, cleaved yes); made in house; host or cells: E. coli BL21(DE3)

[2] = tested on: non-G12D mutation cancer cell lines (H1299, HCT116, A549, A375); assay: Growth inhibition of non-G12D mutation cancer cell lines; format: cell-based
Procedure: as §1

[3] = tested on: SW1990 (homozygous KRAS^G12D/G12D); assay: In-cell covalent labeling and signaling by Western blot, SW1990; format: cell-based
Procedure: (§2) Cells were passed for at least two generations after cryorecovery before they were used for assays. All cell lines were tested mycoplasma negative using MycoAlert™ Mycoplasma Detection Kit (Lonza). When indicated, cells were treated with drugs at 40-60% confluency at a final DMSO concentration of 1%. At the end of treatment period, cells were placed on ice. Unless otherwise indicated, adherent cells were washed once with ice-cold PBS (1 mL), scraped with a spatula, and pelleted by centrifugation (500×g, 5 min). Suspension cells were pelleted by centrifugation (500×g, 5 min), washed with 1 mL ice-cold PBS, and pelleted again. Cells were lysed in RIPA buffer supplemented with protease and phosphatase inhibitors (cOmplete and phosSTOP, Roche) on ice for 10 min. For RBD pulldown experiments, cells were lysed in Co-IP Lysis Buffer in lieu of RIPA buffer. Lysates were clarified by high-speed centrifugation (19,000×g, 10 min). Concentrations of lysates were determined with protein BCA assay (Thermo Fisher) and adjusted to 2 mg/mL with additional RIPA buffer (or Co-IP Lysis Buffer). […]
(§3) Unless otherwise noted, SDS-PAGE was run with Novex 12% Bis-Tris gel (Invitrogen) in MES running buffer (Invitrogen) at 200 V for 60 min following the manufacturer's instructions. […] The membrane was washed three times with TBST (5 min each wash) and imaged on a Li-COR Odyssey fluorescence imager.

[4] = tested on: KRAS G12D mutation cancer cell lines; assay: Growth inhibition of KRAS G12D cancer cell lines; format: cell-based
Procedure: as §1

K-Ras G12D [5] = molecular target: T2, K-Ras G12D (Homo sapiens, UniProt P01116, G12D); assay: Covalent modification of recombinant K-Ras(G12D) by whole-protein mass spectrometry; format: binding
T2 construct: human K-Ras (G12D, aa 1-169); 6xHis tag + TEV cleavage site (N, cleaved yes); made in house; host or cells: E. coli BL21(DE3)
Procedure: (§4) Test compounds were prepared as 100× stock solutions in DMSO. K-Ras proteins were diluted with SEC Buffer (20 mM HEPES 7.5, 150 mM NaCl, 1 mM MgCl2) to 400 nM or 1 μM. In a typical reaction, 0.5 μL 100× compound stock was mixed with 50 μL diluted K-Ras protein, and the resulting mixture was incubated for the desired amount of time. The extent of modification was assessed by electrospray mass spectrometry using a Waters Xevo G2-XS system equipped with an Acquity UPLC BEH C4 1.7 μm column. The mobile phase was a linear gradient of 5-95% acetonitrile/water+0.05% formic acid. For kinetic measurements, a 2× compound solution was first prepared in SEC Buffer, which was then mixed with 400 nM K-Ras(G12D) protein at 1:1 (v/v) ratio. Injection time stamps were used to calculate elapsed time.

[6] = tested on: AGS cell line (heterozygous KRAS^G12D/WT); assay: In-cell covalent labeling by Western blot, AGS; format: cell-based
Procedure: as §2, §3

BaF3/K-Ras(G12D) cells = assay: Growth inhibition of BaF3/K-Ras(G12D) cells; format: cell-based, murine; settings: Mus musculus, read-out: IC50, growth of BaF3/K-Ras(G12D) cells
Procedure: as §1

[7] = tested on: AsPC-1 (homozygous KRAS^G12D/G12D); assay: In-cell covalent labeling by Western blot, AsPC-1; format: cell-based
Procedure: as §2, §3

K-Ras G12E [8] = molecular target: T3, K-Ras G12E (Homo sapiens, UniProt P01116, G12E); assay: Covalent modification of test protein after incubation with compound; format: binding; settings: 24-h incubation with 100 μM compound at 23° C. at pH 7.5
T3 construct: human K-Ras (G12E, aa 1-169); 6xHis tag + TEV cleavage site (N, cleaved yes); made in house; host or cells: E. coli BL21(DE3)

K-Ras(G13D) = molecular target: T4, K-Ras(G13D) (Homo sapiens, UniProt P01116, G13D); assay: Covalent modification of recombinant K-Ras(G13D) by whole-protein mass spectrometry; format: binding; settings: GDP and GppNHp state
T4 construct: human K-Ras (G13D, aa 1-169); 6xHis tag + TEV cleavage site (N, cleaved yes); made in house; host or cells: E. coli BL21(DE3)
Procedure: as §4

[9] = tested on: non-G12D mutation cell lines; assay: In-cell covalent labeling by Western blot, non-G12D cell lines; format: cell-based
Procedure: as §2, §3

K-Ras G12D [10] = molecular target: T2, K-Ras G12D; assay: Covalent modification of test protein after incubation with compound; format: binding; settings: 24-h incubation with 100 μM compound at 23° C. at pH 7.5
K-Ras G12E [11] = molecular target: T3, K-Ras G12E; assay: Covalent modification of recombinant K-Ras(G12E) by whole-protein mass spectrometry; format: binding; settings: GDP and GppNHp state
Procedure: as §4

In the case of `C#Cc1c(F)ccc2cc(O)cc(-c3ncc4c(N5C[C@H]6CC[C@@H](C5)N6C(=O)[C@@H]5OC(=O)C5(C)C)nc(OC[C@@]56CCCN5C[C@H](F)C6)nc4c3F)c12` [(R)-7], the “sensitivity of cells co-treated with interleukin-3” value [1] is reported as “lost sensitivity to (R)-7 up to 10 μM”, the “% covalent modification of wild type K-Ras” value (wild type K-Ras) is reported as 0% and the “toxicity to non-G12D mutation cancer cell lines” value [2] is reported as “minimal toxicity to the latter cell lines up to 10 μM concentration”. The “in-cell labeling of endogenous K-Ras(G12D)” value [3] was “labeled endogenous K-Ras(G12D) completely”, the “growth of KRAS G12D cancer cell lines” value [4] was “selectively inhibited growth of cancer cells lines harboring K-Ras(G12D) mutation” and the “time to complete labeling of K-Ras(G12D)·GDP” value (K-Ras G12D [5]) was ≤ 30 min. The “time to complete labeling of K-Ras(G12D)·GppNHp” value (K-Ras G12D [5]) was ≤ 300 min, the kinact/KI (K-Ras G12D [5]; read-out: kinact/KI against K-Ras(G12D)·GDP) was 11000 M⁻¹ s⁻¹ and the “in-cell labeling of endogenous K-Ras” value [6] was “only half of the two alleles”. The IC50 (BaF3/K-Ras(G12D) cells) was 0.073 ± 0.017 µM, the “in-cell labeling of endogenous K-Ras(G12D)” value [7] was “labeled endogenous K-Ras(G12D) completely” and the “% covalent modification of K-Ras G12E” value (K-Ras G12E [8]) was 0%. For the same compound, the “labeling of K-Ras G13D” value (K-Ras(G13D)) was “not that of WT, G12E, G12S, or G13D”, the “in-cell labeling of K-Ras” value [9] was “none in non-G12D mutation cell lines” and the “% covalent modification of K-Ras G12D” value (K-Ras G12D [10]) was 100%. For the same compound, the “labeling of K-Ras G12E” value (K-Ras G12E [11]) was “not that of WT, G12E, G12S, or G13D”.
